Publication PMC11774906, “Volume-regulated anion channels conduct ATP in undifferentiated mammary cells and promote tumorigenesis in xenograft nude mouse” (Frontiers in Cell and Developmental Biology, 2025)

Target: T1, volume-regulated anion channels (VRACs); LRRC8A-containing hexamer (Homo sapiens, UniProt Q8IWT6)
T1 construct: native channel in intact MCF10A cells; LRRC8 heterohexamer of undefined subunit composition, LRRC8A essential; A, C, D prominently expressed, B and E minimal
T1 sequence (Q8IWT6 1-810): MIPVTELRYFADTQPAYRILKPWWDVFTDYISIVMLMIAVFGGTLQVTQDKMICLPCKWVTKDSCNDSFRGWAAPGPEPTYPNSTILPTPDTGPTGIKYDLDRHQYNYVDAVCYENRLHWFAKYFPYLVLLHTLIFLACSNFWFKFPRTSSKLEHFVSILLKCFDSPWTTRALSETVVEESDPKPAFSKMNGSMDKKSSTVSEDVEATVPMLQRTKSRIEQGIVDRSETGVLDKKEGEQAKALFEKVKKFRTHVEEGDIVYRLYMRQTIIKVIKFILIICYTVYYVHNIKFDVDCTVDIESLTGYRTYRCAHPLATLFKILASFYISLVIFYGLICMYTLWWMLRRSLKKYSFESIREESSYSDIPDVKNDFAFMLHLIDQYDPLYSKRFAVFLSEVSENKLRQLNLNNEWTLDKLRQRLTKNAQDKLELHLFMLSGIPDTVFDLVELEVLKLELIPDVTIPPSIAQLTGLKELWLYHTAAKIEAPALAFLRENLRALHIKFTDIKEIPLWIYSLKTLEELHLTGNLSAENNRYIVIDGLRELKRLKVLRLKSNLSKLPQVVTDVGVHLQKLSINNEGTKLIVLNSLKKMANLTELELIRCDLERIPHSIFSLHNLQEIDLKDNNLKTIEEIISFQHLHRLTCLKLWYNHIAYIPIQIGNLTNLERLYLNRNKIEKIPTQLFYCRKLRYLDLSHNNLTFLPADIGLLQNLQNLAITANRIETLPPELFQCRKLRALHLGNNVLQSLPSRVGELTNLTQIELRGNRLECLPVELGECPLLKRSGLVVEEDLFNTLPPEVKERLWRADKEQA
T1 sequence (Q8TDW0 1-803 partner): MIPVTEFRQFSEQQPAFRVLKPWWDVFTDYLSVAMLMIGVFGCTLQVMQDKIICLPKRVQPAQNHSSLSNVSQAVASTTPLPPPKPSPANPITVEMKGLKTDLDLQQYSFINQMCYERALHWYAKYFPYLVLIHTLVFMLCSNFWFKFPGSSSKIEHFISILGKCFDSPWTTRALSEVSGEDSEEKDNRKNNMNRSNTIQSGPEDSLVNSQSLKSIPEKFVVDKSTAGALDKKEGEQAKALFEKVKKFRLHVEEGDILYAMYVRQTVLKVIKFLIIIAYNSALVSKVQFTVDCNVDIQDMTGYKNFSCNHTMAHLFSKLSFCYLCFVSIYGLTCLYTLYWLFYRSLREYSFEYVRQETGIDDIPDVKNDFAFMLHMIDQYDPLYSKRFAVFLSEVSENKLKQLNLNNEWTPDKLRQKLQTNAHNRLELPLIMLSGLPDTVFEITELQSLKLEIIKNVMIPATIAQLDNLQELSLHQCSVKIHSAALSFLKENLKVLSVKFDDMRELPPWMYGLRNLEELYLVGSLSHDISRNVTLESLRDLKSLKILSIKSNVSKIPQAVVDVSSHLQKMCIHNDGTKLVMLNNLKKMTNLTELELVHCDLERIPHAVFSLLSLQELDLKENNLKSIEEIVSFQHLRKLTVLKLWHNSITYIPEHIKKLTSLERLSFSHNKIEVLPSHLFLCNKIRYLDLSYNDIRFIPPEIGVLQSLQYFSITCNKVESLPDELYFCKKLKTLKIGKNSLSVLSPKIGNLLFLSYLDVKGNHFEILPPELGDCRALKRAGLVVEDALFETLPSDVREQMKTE
T1 sequence (Q7L1W4 1-858 partner): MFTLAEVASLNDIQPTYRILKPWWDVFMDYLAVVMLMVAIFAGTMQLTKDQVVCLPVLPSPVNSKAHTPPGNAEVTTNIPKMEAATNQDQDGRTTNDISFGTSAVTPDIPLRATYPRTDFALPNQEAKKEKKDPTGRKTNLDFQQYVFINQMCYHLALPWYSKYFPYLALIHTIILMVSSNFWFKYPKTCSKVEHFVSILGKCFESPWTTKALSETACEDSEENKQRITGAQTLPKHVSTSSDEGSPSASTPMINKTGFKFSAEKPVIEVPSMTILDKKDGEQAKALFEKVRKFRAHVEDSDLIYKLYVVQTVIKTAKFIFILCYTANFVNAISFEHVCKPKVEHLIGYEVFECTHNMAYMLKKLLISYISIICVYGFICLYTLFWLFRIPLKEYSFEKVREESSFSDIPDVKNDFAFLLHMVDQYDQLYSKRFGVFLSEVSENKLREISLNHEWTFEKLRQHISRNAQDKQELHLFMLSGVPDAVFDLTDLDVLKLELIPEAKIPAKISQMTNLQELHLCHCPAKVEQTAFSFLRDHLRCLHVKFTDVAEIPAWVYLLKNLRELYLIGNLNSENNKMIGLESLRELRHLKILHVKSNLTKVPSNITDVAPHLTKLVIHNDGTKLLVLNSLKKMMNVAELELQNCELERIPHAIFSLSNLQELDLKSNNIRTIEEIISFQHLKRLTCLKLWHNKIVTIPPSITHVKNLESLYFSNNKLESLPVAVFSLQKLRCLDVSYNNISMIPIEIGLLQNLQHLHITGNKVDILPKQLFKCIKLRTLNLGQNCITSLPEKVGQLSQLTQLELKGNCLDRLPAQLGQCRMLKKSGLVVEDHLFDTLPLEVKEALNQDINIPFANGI
Test: luciferin-luciferase imaging of hypotonic diffuse ATP release in MCF10A cells
Assay type: cell-based
Details: 50% hypotonic stress; pH 7.4, 30 °C; decay of ATP signal after DCPIB, exponential fit; indirect read-out (ATP release)

## CCCCC1(C2CCCC2)Cc2cc(OCCCC(=O)O)c(Cl)c(Cl)c2C1=O (stereo not shown) [DCPIB, 4-[(2-Butyl-6,7-dichloro-2-cyclopentyl-2,3-dihydro-1-oxo-1H-inden-5-yl)oxy] butanoic acid]
  IC50: 38.5 µM
